From US8901317B2, “Tryptamine derivatives, their preparation and their use in gastropathy” (Council of Scientific & Industrial Research, priority 2010, dated 2014)

Tests used:
[1] = test system: Ethanol-induced gastric mucosal injury; assay: Ethanol-induced gastric mucosal injury; type: in vivo, Sprague-Dwaley rats; conditions: 1 ml of 50% ethanol oral; rats
[2] = test system: caspase-9; assay: Caspase-9 activity in gastric mucosal tissue; type: in vivo, rats; conditions: gastric mucosa
Procedure: From cytosolic fraction of gastric mucosal tissues, caspase-9 and caspse-3 activities were measured using commercially available kit (Biovision, Mountain View, Calif., USA and Sigma respectively). In brief, the gastric mucosa was homogenized in caspase lysis buffer (provided with the respective kit). The homogenate was centrifuged at 16,000×g for 15 min. The supernatant was collected and mixed with 50 μl of 2× reaction buffer (provided with the respective kit). This was followed by addition of the substrates: […] (200 μM final concentration) for caspase-3 and LEHD-pNA (200 μM final concentration) for caspase-9. The mixture was incubated at 37° C. for 1 hr and absorbance was taken at 405 nm (Maity, P.; et al. J. Biol. Chem. 284:3058-3068; 2009, Maity, P.; et al. J. Biol. Chem. 283:14391-14401; 2008, Maity, P.; et al. J. Pineal Res. 46:314-323; 2009).

[3] = test system: primary cultured gastric epithelial cells; assay: TUNEL assay in cultured gastric mucosal cells; type: cell-based, rat; conditions: in vitro cultured gastric mucosa
Procedure: Gastric mucosal cells were isolated and cultured as described earlier (Pal, C; et al. Free Radic Biol Med, 49(2), 258-267; 2010) with slight modification. Mucosa from rat stomach was scraped into HBSS (pH 7.4) containing 100 U/ml penicillin and 100-μg/ml streptomycin. The mucosa was then minced and suspended in HBSS (pH 7.4), containing 0.05% hyaluronidase and 0.1% collagenase type I. The suspension was incubated for 30 min at 37° C. in 5% CO2 environment with shaking and then filtered through a sterile nylon mess. The filtrate was centrifuged at 600×g for 5 min, the cell pellet was washed with HBSS (pH 7.4) and further centrifuged. The pellet was incubated in 5 ml of Hans F-12 media in T25 flask supplemented with 10% fetal bovine serum (FBS) and 100 U/ml penicillin, 100-μg/ml streptomycin and gentamycin. Cells were cultured at 37° C. with 5% CO2 and grown to ˜90% confluence before treatment.

O=C(NCCc1c[nH]c2ccc(O)cc12)c1cc(O)c(O)c(O)c1 [Compound 3a, 3,4,5-trihydroxy-N-(2-(5-hydroxy-1H-indol-3-yl)ethyl)benzamide]
gastroprotective effect in ethanol induced gastropathy [1]: protects the gastric mucosa | activation of caspase-9 during indomethacin treatment [2]: prevents the activation of caspase-9 | indomethacin-induced apoptosis (TUNEL) in vitro [3]: prevents the indomethcin-induced apoptosis
